These results are taken from patent US20080234340A1, “Synthesis and characterization of polymorph form II of 4-(2-(4,4-dimethyl-2-oxooxazolidin-3-YL)thiazol-4-YL)benzonitrile” (Wyeth, priority 2007, published 2008).

Series [1] has as its target T1, progesterone receptor (PR) (Homo sapiens, UniProt P06401).
T1 construct: in live, intact (whole) cells using the human breast carcinoma T47D cell line; endogenous in cells; host or cells: T47D human breast carcinoma cells
T1 sequence (P06401 1-933): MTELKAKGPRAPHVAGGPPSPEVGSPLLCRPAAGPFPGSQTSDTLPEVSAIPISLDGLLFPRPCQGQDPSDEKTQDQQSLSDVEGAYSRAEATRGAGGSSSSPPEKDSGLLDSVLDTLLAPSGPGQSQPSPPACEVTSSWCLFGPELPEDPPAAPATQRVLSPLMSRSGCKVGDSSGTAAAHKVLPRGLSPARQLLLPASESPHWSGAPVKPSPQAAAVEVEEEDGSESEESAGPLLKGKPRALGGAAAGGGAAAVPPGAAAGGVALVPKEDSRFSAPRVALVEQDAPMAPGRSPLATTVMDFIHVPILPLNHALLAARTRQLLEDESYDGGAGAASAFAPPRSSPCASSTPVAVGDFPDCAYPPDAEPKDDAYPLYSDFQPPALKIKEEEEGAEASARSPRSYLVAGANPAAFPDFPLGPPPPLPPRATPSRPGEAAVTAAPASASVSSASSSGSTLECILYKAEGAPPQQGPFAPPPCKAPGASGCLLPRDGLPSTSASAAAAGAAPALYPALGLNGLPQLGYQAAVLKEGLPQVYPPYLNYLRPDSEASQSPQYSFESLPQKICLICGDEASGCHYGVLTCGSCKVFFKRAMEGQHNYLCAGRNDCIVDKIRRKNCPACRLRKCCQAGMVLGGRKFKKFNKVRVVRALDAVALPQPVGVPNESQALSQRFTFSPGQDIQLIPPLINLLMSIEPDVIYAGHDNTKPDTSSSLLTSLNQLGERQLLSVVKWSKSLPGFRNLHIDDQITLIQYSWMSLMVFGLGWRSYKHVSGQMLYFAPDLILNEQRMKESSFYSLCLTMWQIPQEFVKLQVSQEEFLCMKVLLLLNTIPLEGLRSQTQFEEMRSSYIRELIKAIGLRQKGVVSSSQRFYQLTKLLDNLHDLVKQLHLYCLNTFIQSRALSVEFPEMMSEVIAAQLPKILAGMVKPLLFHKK
The series can be described thus: PR whole cell binding in T47D cells with 3H-progesterone as labeled ligand. As to conditions: live, intact T47D cells; 3H-progesterone labeled ligand. An excerpt:
(§1) The compound 4-(2-(4,4-dimethyl-2-oxooxazolidin-3-yl)thiazol-4-yl)benzonitrile has shown activity for modulating PR activity in assays to identify progestins or antiprogestins by (a) determining effect on alkaline phosphatase activity in T47D cells or (b) evaluating the progesterone receptor (PR) binding activity in live, intact (whole) cells using the human breast carcinoma T47D cell line and ^3H-progesterone as the labeled ligand (data presented in Table below).

Series [2] has as its target T1, progesterone receptor (PR). The series can be described thus: T47D alkaline phosphatase activity assay to identify progestins or antiprogestins. It counts as cell-based. As to conditions: T47D cells.
Excerpt: as §1

The nature of series [3]: Hygroscopicity (ability to absorb water/moisture from the air). The class given is physicochemical. As to conditions: normal, atmospheric conditions. An excerpt:
One of skill in the art would readily be able to measure the hygroscopicity of Form II using techniques known in the art including, without limitation, dynamic vapor sorption (DVS) at relative humidities ranging from 0 to 100%. This decreased hygroscopic property of Form II thereby permits longer shelf life and storage of the solid compound in comparison to Form I.

The nature of series [4]: Solubility in solvent at room temperature, centrifuged after 24 hours, supernatant assayed. It counts as physicochemical. The procedure:
In another embodiment, the solvent is 2% Tween® 80 reagent in water, wherein Tween® 80 is a polyoxyethylene (20) sorbitan monooleate. One of skill in the art would readily be able to measure the solubility of Form II using techniques known in the art. Typically, the solubility was measured by adding Form II to a solvent at room temperature, centrifuging the solution after 24 hours, and assaying the supernatant. This increased solubility is observed when Form II is immersed in water.
In this example, the solubility of polymorph Form II of 4-(2-(4,4-dimethyl-2-oxooxazolidin-3-yl)thiazol-4-yl)benzonitrile in water is measured.

For orientation: Ki means a dissociation constant, usually derived from enzyme kinetics or from competition with a known ligand. Read a low Ki as higher affinity. As a reminder, the IC50 is the point on the concentration scale where inhibition reaches its midpoint. Lower therefore signals greater potency. Turning to `CC1(C)COC(=O)N1c1nc(-c2ccc(C#N)cc2)cs1` [4-(2-(4,4-dimethyl-2-oxooxazolidin-3-yl)thiazol-4-yl)benzonitrile], the Ki in series [1] was determined as 4.9 nM. Moreover, the IC50 in series [2] is 3.1 nM.
With `CC1(C)COC(=O)N1c1nc(-c2ccc(C#N)cc2)cs1` [Form II, 4-(2-(4,4-dimethyl-2-oxooxazolidin-3-yl)thiazol-4-yl)benzonitrile], the “Hygroscopicity compared with Form I” value in series [3] is on record as “less hygroscopic than Form I”. Also, the “Solubility compared with Form I” value in series [4] (solvents such as water and hydrophilic non-ionic surfactants (2% Tween 80 in water), room temperature, 24 hours) was “more soluble”. In series [4] (water), the “Solubility in water relative to Form I” value is reported as 4 times.
